According to ChEMBL document CHEMBL1201862, “PubChem BioAssay data set” (2004):
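Tested at 5 concentrations; 48 h exposure; 96-well plates; endpoints linearly interpolated, else capped at highest concentration. Abbreviation: GI50, concentration required for 50% inhibition of growth.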 The source made the active and inactive calls. Rule as the data show it: active = GI50 up to about 1.1 µM and inactive = higher.

Tests used:
Assay in all cases: inhibition of tumour cell growth, NCI panel, 48 h
[1] = tested on: HCC 2998
[2] = tested on: SN12C
[3] = tested on: XF498
[4] = tested on: KM-20L2
[5] = tested on: OVCAR-8
[6] = tested on: SR
[7] = tested on: A549
[8] = tested on: IGROV-1
[9] = tested on: EKVX
[10] = tested on: SF-539
[11] = tested on: LOX IMVI
[12] = tested on: NCI-H460
[13] = tested on: NCI-H23
[14] = tested on: NCI-H226
[15] = tested on: HT-29
[16] = tested on: UO-31
[17] = tested on: M14
[18] = tested on: NCI-H522
[19] = tested on: RPMI-8226
[20] = tested on: K562
[21] = tested on: UACC-62
[22] = tested on: HOP-62
[23] = tested on: 786-0
[24] = tested on: SNB-19
[25] = tested on: ACHN
[26] = tested on: HL-60
[27] = tested on: SF-295
[28] = tested on: SW-620
[29] = tested on: COLO 205
[30] = tested on: SK-MEL-28
[31] = tested on: CCRF-CEM
[32] = tested on: U-251
[33] = tested on: Malme-3M
[34] = tested on: HCT-116
[35] = tested on: SK-OV-3
[36] = tested on: M19-MEL
[37] = tested on: DMS-273
[38] = tested on: LXFL 529
[39] = tested on: MOLT-4
[40] = tested on: SF-268
[41] = tested on: TK-10
[42] = tested on: SK-MEL-5
[43] = tested on: DMS-114
[44] = tested on: HCT-15
[45] = tested on: KM12
[46] = tested on: OVCAR-3
[47] = tested on: UACC-257
[48] = tested on: SNB-75
[49] = tested on: CAKI-1
[50] = tested on: HOP-18
[51] = tested on: SK-MEL-2
[52] = tested on: OVCAR-5
[53] = tested on: SNB-78
[54] = tested on: A498
[55] = tested on: DLD-1
[56] = tested on: RXF 393
[57] = tested on: HOP-92
[58] = tested on: OVCAR-4

For `COC(=O)c1csnn1`, the GI50 [1] was > 100 µM (inactive), the GI50 [2] was > 100 µM (inactive) and the GI50 [3] was > 100 µM (inactive). The GI50 [4] was > 100 µM (inactive), the GI50 [5] was > 100 µM (inactive) and the GI50 [6] was > 100 µM (inactive). For the same compound, the GI50 [7] was > 100 µM (inactive), the GI50 [8] was > 100 µM (inactive) and the GI50 [9] was > 100 µM (inactive). The GI50 [10] was > 100 µM (inactive), the GI50 [11] was > 100 µM (inactive) and the GI50 [12] was > 100 µM (inactive). The GI50 [13] was > 100 µM (inactive), the GI50 [14] was > 100 µM (inactive) and the GI50 [15] was > 100 µM (inactive). The GI50 [16] was > 100 µM (inactive), the GI50 [17] was > 100 µM (inactive) and the GI50 [18] was > 100 µM (inactive). The GI50 [19] was > 100 µM (inactive), the GI50 [20] was > 100 µM (inactive) and the GI50 [21] was > 100 µM (inactive). The GI50 [22] was > 100 µM (inactive), the GI50 [23] was > 100 µM (inactive) and the GI50 [24] was > 100 µM (inactive). For the same compound, the GI50 [25] was > 100 µM (inactive), the GI50 [26] was > 100 µM (inactive) and the GI50 [27] was > 100 µM (inactive). For the same compound, the GI50 [28] was > 100 µM (inactive), the GI50 [29] was > 100 µM (inactive) and the GI50 [30] was > 100 µM (inactive). The GI50 [31] was > 100 µM (inactive), the GI50 [32] was > 100 µM (inactive) and the GI50 [33] was > 100 µM (inactive). The GI50 [34] was > 100 µM (inactive), the GI50 [35] was > 100 µM (inactive) and the GI50 [36] was > 100 µM (inactive). The GI50 [37] was > 100 µM (inactive), the GI50 [38] was > 100 µM (inactive) and the GI50 [39] was > 100 µM (inactive). For the same compound, the GI50 [40] was > 100 µM (inactive), the GI50 [41] was > 100 µM (inactive) and the GI50 [42] was > 100 µM (inactive). The GI50 [43] was > 100 µM (inactive), the GI50 [44] was greater than 100 µM and the GI50 [45] was > 100 µM (inactive). The GI50 [46] was > 100 µM (inactive) and the GI50 [47] was > 100 µM (inactive).

`Nc1ccc2c(c1)CC1c3ccccc3C(C2)c2ccccc21` was tested, and the GI50 [1] was > 100 µM (inactive), the GI50 [2] was > 100 µM (inactive) and the GI50 [4] was > 100 µM (inactive). The GI50 [48] was > 100 µM (inactive), the GI50 [5] was > 100 µM (inactive) and the GI50 [49] was > 100 µM (inactive). The GI50 [50] was > 100 µM (inactive), the GI50 [51] was > 100 µM (inactive) and the GI50 [6] was 9.68 µM (inactive). For the same compound, the GI50 [7] was > 100 µM (inactive), the GI50 [8] was > 100 µM (inactive) and the GI50 [52] was > 100 µM (inactive). The GI50 [53] was > 100 µM (inactive), the GI50 [10] was > 100 µM (inactive) and the GI50 [11] was > 100 µM (inactive). The GI50 [12] was > 100 µM (inactive), the GI50 [15] was > 100 µM (inactive) and the GI50 [16] was > 100 µM (inactive). For the same compound, the GI50 [17] was > 100 µM (inactive), the GI50 [18] was > 100 µM (inactive) and the GI50 [19] was 34.6 µM (inactive). For the same compound, the GI50 [20] was > 100 µM (inactive), the GI50 [54] was > 100 µM (inactive) and the GI50 [21] was > 100 µM (inactive). For the same compound, the GI50 [22] was > 100 µM (inactive), the GI50 [23] was > 100 µM (inactive) and the GI50 [24] was > 100 µM (inactive). For the same compound, the GI50 [25] was > 100 µM (inactive), the GI50 [55] was > 100 µM (inactive) and the GI50 [26] was > 100 µM (inactive). The GI50 [56] was > 100 µM (inactive), the GI50 [27] was > 100 µM (inactive) and the GI50 [28] was > 100 µM (inactive). For the same compound, the GI50 [29] was > 100 µM (inactive), the GI50 [31] was 47.3 µM (inactive) and the GI50 [32] was > 100 µM (inactive). The GI50 [33] was > 100 µM (inactive), the GI50 [34] was > 100 µM (inactive) and the GI50 [35] was > 100 µM (inactive). The GI50 [36] was > 100 µM (inactive), the GI50 [37] was > 100 µM (inactive) and the GI50 [38] was > 100 µM (inactive). For the same compound, the GI50 [39] was > 100 µM (inactive), the GI50 [57] was > 100 µM (inactive) and the GI50 [40] was > 100 µM (inactive). For the same compound, the GI50 [58] was > 100 µM (inactive), the GI50 [41] was > 100 µM (inactive) and the GI50 [42] was > 100 µM (inactive). The GI50 [43] was > 100 µM (inactive), the GI50 [44] was greater than 100 µM and the GI50 [45] was > 100 µM (inactive). For the same compound, the GI50 [47] was > 100 µM (inactive).

With `COc1ccc(N2C(=O)C3c4[nH]c5ccccc5c4C4CCCCC4C3C2=O)cc1` (stereo unspecified) the GI50 [1] was 18.3 µM (inactive), the GI50 [2] was 25.5 µM (inactive) and the GI50 [4] was 39.4 µM (inactive). The GI50 [48] was 3.5 µM (inactive), the GI50 [5] was 11 µM (inactive) and the GI50 [49] was 51.3 µM (inactive). For the same compound, the GI50 [50] was 22.4 µM (inactive), the GI50 [51] was 16.6 µM (inactive) and the GI50 [6] was 11.7 µM (inactive). The GI50 [7] was 18.3 µM (inactive), the GI50 [8] was 24.7 µM (inactive) and the GI50 [52] was > 100 µM (inactive). For the same compound, the GI50 [53] was 2.29 µM (inactive), the GI50 [9] was 17.3 µM (inactive) and the GI50 [10] was 14.5 µM (inactive). The GI50 [11] was 20 µM (inactive), the GI50 [12] was 19.5 µM (inactive) and the GI50 [13] was 25.8 µM (inactive). For the same compound, the GI50 [14] was 27.4 µM (inactive), the GI50 [15] was 23.4 µM (inactive) and the GI50 [16] was 26.4 µM (inactive). The GI50 [17] was 18 µM (inactive), the GI50 [18] was 18 µM (inactive) and the GI50 [19] was 32.3 µM (inactive). The GI50 [20] was 18.2 µM (inactive), the GI50 [54] was 24.6 µM (inactive) and the GI50 [21] was 10.3 µM (inactive). For the same compound, the GI50 [22] was 15 µM (inactive), the GI50 [23] was 11.1 µM (inactive) and the GI50 [24] was 50.6 µM (inactive). The GI50 [25] was 22.5 µM (inactive), the GI50 [55] was 49 µM (inactive) and the GI50 [26] was 16.2 µM (inactive). For the same compound, the GI50 [56] was 20.8 µM (inactive), the GI50 [27] was 11.3 µM (inactive) and the GI50 [28] was 29.1 µM (inactive). For the same compound, the GI50 [29] was 3.94 µM (inactive), the GI50 [30] was 10.6 µM (inactive) and the GI50 [31] was 11.9 µM (inactive). For the same compound, the GI50 [32] was 15.6 µM (inactive), the GI50 [33] was 5.56 µM (inactive) and the GI50 [34] was 7.11 µM (inactive). The GI50 [35] was 19.7 µM (inactive), the GI50 [36] was 28.8 µM (inactive) and the GI50 [37] was 6.75 µM (inactive). For the same compound, the GI50 [38] was 22.2 µM (inactive), the GI50 [39] was 16.1 µM (inactive) and the GI50 [57] was 18.2 µM (inactive). For the same compound, the GI50 [40] was 8.61 µM (inactive), the GI50 [58] was 5.4 µM (inactive) and the GI50 [41] was 21.3 µM (inactive). For the same compound, the GI50 [42] was 21.7 µM (inactive), the GI50 [43] was 8.63 µM (inactive) and the GI50 [44] was greater than 100 µM. For the same compound, the GI50 [45] was 38.5 µM (inactive), the GI50 [46] was > 100 µM (inactive) and the GI50 [47] was 27.8 µM (inactive).
